Experimental findings from patent publication US20070004689A1, “Antiangiogenic agents” (priority 2004, published 2007) are described below.

The subject of data set [1] is MDA-MB-231 a human breast carcinoma. As to the kind of experiment: BrdU proliferation assay, MDA-MB-231 (anti-tumor activity). In kind it is cell-based. The conditions noted are these: BrdU DNA synthesis, 48 h exposure, read-out: MDA-MB-231 (IC50 μM). An excerpt: (§1) Cell Culture: Human umbilical vein endothelial cells (HUVEC) were obtained from Clonetics (San Diego, Calif.), MCF7 cells were the kind gift of Dr. Dorraya El Ashry (University of Michigan), MDA-MB-231 a human breast carcinoma, PC3 a human prostate carcinoma, and U87-MG a human glioma, cell lines were obtained from ATCC. HUVEC cultures were maintained for up to 5 passages in EGM containing bovine brain extract (Clonetics) and 1× antibiotic-antimycotic (BioWhittaker, Walkersville, Md.). MDA-MB-231, PC3, U87-MG and MCF-7 cells were maintained in DMEM/F12 (1:1) containing 10% (v/v) fetal bovine serum (Hyclone Laboratories, Logan, Utah) and 1× antibiotic-antimycotic. MCF7 cells were used between passage 60 and passage 100.
(§2) Proliferation Assays: Proliferation was measured by cell counting using a Coulter Zl cell counter (Coulter Corporation, Hialeah, Fla.) or by evaluation of DNA synthesis. Each condition was done in triplicate and experiments were repeated at least twice. To determine estrogenicity of the analogs, MCF7 estrogen-dependent proliferation assays were performed. The cells were seeded in complete media at 10,000 cells/well in a 24 well plate after allowing the cells to adhere overnight and the seeding density was determined by cell counts. Cells were washed with PBS (37° C.) and starved by placing them in IMEM-phenol red free media containing 2% charcoal-dextran fetal bovine-stripped serum (Valley Biomedical, Winchester, Va.) and 1× antibiotic-antimycotic. After 3 days of starvation, cells were treated with or without increasing concentrations of compounds, replacing the media every 2-3 days and counted after 7 days of treatment. In order to ensure that only the added test compounds stimulated growth, experiments were performed only with cell cultures that duplicated less than once during the starvation period. Values are expressed as MCF7 stimulation index (SI) relative to 2ME2 (defined as 1.00). A value less than 1.00 indicates reduced estrogenicity. Estradiol is used as a positive control.
(§3) To determine anti-tumor and anti-angiogenic activities of the analogs, proliferation assays were performed by evaluating detection of DNA synthesis by use of the 5-bromo-2′-deoxyuridine (BrdU) cell proliferation colorimetric ELISA kit from Roche (Indianapolis, Ind.) according to the manufacturer's instructions. For BrdU assays, the cells were seeded at 1,000 cells/well (MDA-MB-231, anti-tumor activity) or 3,000 cells/well (HUVEC, anti-angiogenic activity) in a 96 well plate, allowed to attach overnight and then exposed to the compound for 48 h. IC50 value is the concentration at which cell proliferation is inhibited by 50%.
(§4) Antiproliferative activity of the NCEs were assessed in tumor cell lines (MDA-MB-231 a breast carcinoma, PC3 a prostate carcinoma and U87-MG a glioma) and endothelial cells (HUVEC).

Data set [2] deals with human hepatocyte suspensions. In words: Hepatocyte incubations, human. The data set is classed as in vitro ADME. To be noted: human hepatocytes, NR = no reaction; for Hepatocyte Human 60/120′ (1 uM): 60′ / Hepatocyte Human 60/120′ (5 uM): 60′: 60 minutes; for Hepatocyte Human 60/120′ (1 uM): 120′ / Hepatocyte Human 60/120′ (5 uM): 120′: 120 minutes. How it is done: Hepatocyte Incubations: An in vitro measure of metabolism using cells from rat and human liver. Rat and human hepatocyte suspensions (10^6 cells per mL of serum-free (H)CL15 culture medium) were incubated with 2 concentrations (1 and 5 μM) of each of the compounds. Stock solutions were prepared in DMSO, and were further diluted in culture medium to the final test concentrations. 7-Ethoxycoumarin (7-EC) were included as a positive control substrate for P450. A 0.1 M 7-EC stock solution was prepared in DMSO, and the final assay concentration was 100 μM. The reactions were initiated by the addition of the substrates, incubated at 37° C., and terminated after 0, 60 and 120 minutes by addition of acetonitrile. The positive 7-EC control reactions were stopped with perchloric acid or ZnSO4 and BaOH after 60-minutes of incubation. The reaction mixture was centrifuged to remove the cell debris, and the supernatant was used for subsequent analysis by HPLC/LC-MS. If necessary, the supernatants were flash frozen in liquid N2 and stored at −70° C. until further analysis. HPLC was used to analyze product formation from 7-EC. Analyses to determine the concentration of the test compounds were carried out using reverse phase HPLC with tandem mass spectrometric detection (LC-MS/MS). Samples were analyzed to measure the disappearance of parent compound over time. The rate of metabolism was estimated by fitting a curve to the data for each concentration against time using GraphPad Prism Version 3.02 software.

For the next data set, the system named is MCF7 cells. As to the kind of experiment: MCF7 estrogen-dependent proliferation assay (estrogenicity). The data set is classed as cell-based, human. The conditions noted are these: stimulation index, 2ME2 defined as 1.00; less than 1.00 = reduced estrogenicity; 7 days of treatment.
From the text: as §1
as §2, with “[…].” for “Values are expressed as MCF7 stimulation index (SI) relative to 2ME2 (defined as 1.00). A value less than 1.00 indicates reduced estrogenicity.”

A further data set concerns U87-MG a human glioma. In words: Proliferation assay, U87-MG. The data set is classed as cell-based. To be noted: proliferation, read-out: U87-MG (IC50 μM).
From the text: as §1, §2, §3, §4

Like-named read-outs stand apart in the source and are kept apart here.

As for `COc1cc2c(cc1C(N)=O)CC[C@@H]1[C@@H]2CC[C@]2(C)C=CC[C@@H]12` [Compound 63, 3-carboxamide-2-methoxy-1,3,5(10)16-estratetraene], the IC50 in data set [1] was 0.19 ± 0.04 µM. In data set [2], the “Hepatocyte Human 60/120′ (1 uM): 60′” value was determined as 52, the “Hepatocyte Human 60/120′ (1 uM): 120′” value turned out to be 70, the “Hepatocyte Human 60/120′ (5 uM): 60′” value was found to be 92 and the “Hepatocyte Human 60/120′ (5 uM): 120′” value was 71. Moreover, in the data set on MCF7 cells, the “MCF7 SI Relative to 2ME2” value came to 0.28. Also, the IC50 in the data set with U87-MG a human glioma was determined as 0.23 ± 0.08 µM.

Take `COc1cc2c(cc1C(N)=O)CC[C@@H]1[C@@H]2CC[C@]2(C)CCC[C@@H]12` [Compound 57, (2-Methoxyestra-1,3,5(10)-trien-3-yl)-3-carboxamide]: the IC50 in data set [1] was 2.37 ± 0.8 µM. Further, in data set [2], the “Hepatocyte Human 60/120′ (1 uM): 60′” value was found to be 111, the “Hepatocyte Human 60/120′ (1 uM): 120′” value was found to be 98, the “Hepatocyte Human 60/120′ (5 uM): 60′” value is recorded as 117 and the “Hepatocyte Human 60/120′ (5 uM): 120′” value was determined as 118. The “MCF7 SI Relative to 2ME2” value in the data set with MCF7 cells amounted to 0.31. Also, in the data set with U87-MG a human glioma, the concentration for half-maximal inhibition (IC50) came to 10 ± 2.49 µM.

As to `C=C1CC[C@H]2[C@@H]3CCc4cc(C(N)=O)c(OC)cc4[C@H]3CC[C@]12C` [Compound 60, 2-Methoxy-17-methyleneestra-1,3,5(10)-triene-3-carboxamide], the IC50 in data set [1] (Homo sapiens, MDA-MB-231) worked out at 0.19 ± 0.08 µM. Further, in data set [2], the “Hepatocyte Human 60/120′ (1 uM): 120′” value was determined as 91, the “Hepatocyte Human 60/120′ (5 uM): 60′” value turned out to be 96 and the “Hepatocyte Human 60/120′ (5 uM): 120′” value is listed as 93. Further, the “MCF7 SI Relative to 2ME2” value in the data set with MCF7 cells came out at 0.26. Also, in the data set on U87-MG a human glioma (Homo sapiens, U-87 MG), the IC50 amounted to 0.25 ± 0.02 µM.

On to `COc1cc2c(cc1C(N)=O)CC[C@@H]1[C@@H]2CC[C@]2(C)C(=O)CC[C@@H]12` [Compound 54, 2-methoxy-17-oxoestra-1,3,5(10)-triene-3-carboxamide], for which the IC50 in data set [1] (Homo sapiens, MDA-MB-231) is 2.2 ± 0.43 µM. For the same compound, in data set [2], the “Hepatocyte Human 60/120′ (1 uM): 60′” value amounted to 99, the “Hepatocyte Human 60/120′ (1 uM): 120′” value is on record as 102 and the “Hepatocyte Human 60/120′ (5 uM): 120′” value is 103. Besides, in the data set with MCF7 cells, the “MCF7 SI Relative to 2ME2” value was determined as 0.26. Besides, the half-inhibitory concentration (IC50) in the data set on U87-MG a human glioma (Homo sapiens, U-87 MG) stood at 2.23 ± 0.4 µM.
